Assay results reported in paper PMC9995496, “A screen for MeCP2-TBL1 interaction inhibitors using a luminescence-based assay” (Scientific Reports, 2023).
Structures can show the parent of a compound that is named as a salt. Where two headings read alike, the source gives them in different places.

Test system: PRKACA-PRKAR2A interaction (SmBiT-PRKACA / LgBiT-PRKAR2A), protein kinase A
Set-up: NanoLuc complementation counter-screen in cell extract, PRKACA with PRKAR2A, loss of luminescence, detects NanoLuc interference
Settings: 0.5 h, 20 µM, inhibitor
[1] = counter-screen for NanoLuc interference
[2] = counter-screen for NanoLuc interference, Inh (PKA)

| Inh (PKA) [1] [%] | SMILES | further results |
| --- | --- | --- |
| 24.76 | O=C(Nc1cccc(C(F)(F)F)c1)Nc1cc(S(=O)(=O)NC2CC2)ccc1-c1ccsc1 [UM0141513:01, AGI-6780] | – |
| 8.348 | N#CC(c1ccnc(OCc2ccc(CN3CCOCC3)cc2)n1)c1nc2ccccc2s1 (centres unmarked) [UM0141518:01, AS 602801] | – |
| 2.084 | COc1cc(N2CCC(N3CCN(C)CC3)CC2)ccc1Nc1ncnc(Nc2ccccc2S(=O)(=O)C(C)C)n1 [UM0141520:01, ASP3026] | – |
| 22.87 | C=CC(=O)Nc1cccc(Nc2nc(Nc3ccc(OCCOC)cc3)ncc2F)c1 [UM0141522:01, AVL-292] | – |
| 8.114 | CCN(CCCOc1ccc2c(Nc3cc(CC(=O)Nc4cccc(F)c4)[nH]n3)ncnc2c1)CCOP(=O)(O)O [UM0141525:01, AZD1152] | – |
| 45.75 | CNCc1ccc(C)c(NC(=O)c2ccc(Nc3nc(-c4ccccc4)c4ccccc4n3)cc2)c1 [UM0141527:01, BMS-833923] | – |
| 6.521 | C=CC(=O)Nc1cc(-n2c(=O)ccc3cnc4ccc(-c5ccc(NS(C)(=O)=O)cc5)cc4c32)ccc1C [UM0141528:01, BMX-IN-1] | – |
| 2.568 | C[C@@H](O)[C@H](NC(=O)c1ccc(C#Cc2ccc(CN3CCOCC3)cc2)cc1)C(=O)NO [UM0141531:01, CHIR-090] | – |
| 17.5 | C=CC(=O)Nc1cccc(Nc2nc(Nc3ccc(N4CCN(C(C)=O)CC4)cc3OC)ncc2C(F)(F)F)c1 [UM0141532:01, CO-1686 (AVL-301)] | – |
| 70.09 | COc1cc(/C=C/C(=O)CC(=O)/C=C/c2ccc(O)c(OC)c2)ccc1O [UM0141535:01, Curcumin] | – |
| 48.23 | CN1CCCN(C(=O)c2cccc(-c3ccc(/C=C4/C(=O)Nc5ccc(Cl)cc54)o3)c2)CC1 [UM0141536:01, CX-6258] | – |
| 8.505 | CCN(CC)CCN(Cc1ccc(-c2ccc(C(F)(F)F)cc2)cc1)C(=O)Cn1c(SCc2ccc(F)cc2)nc(=O)c2c1CCC2 [UM0141541:01, Darapladib] | – |
| 39.9 | NC(=O)c1ccccc1Nc1ccnc(Nc2cccc(O)c2)n1 [UM0141542:01, DB07268] | – |
| 6.648 | CCCCc1oc2ccc(NS(C)(=O)=O)cc2c1C(=O)c1ccc(OCCCN(CCCC)CCCC)cc1 [UM0141544:01, Dronedarone] | – |
| 22.37 | COc1cc2c(cc1OC)CN(CCc1ccc(NC(=O)c3cccc4c(=O)c5cccc(OC)c5[nH]c34)cc1)CC2 [UM0141547:01, Elacridar] | – |
| 7.378 | CN1CCC(COc2cnc(-c3cccc(Cn4nc(-c5cccc(C#N)c5)ccc4=O)c3)nc2)CC1 [UM0141548:01, EMD-1214063] | – |
| 19.67 | CCc1c(C(=O)NNC(=O)C(O)c2cc(F)cc(F)c2)ccc(O)c1C (centres unmarked) [UM0141549:01, EMD638683] | – |
| 2.792 | Cc1ccc(-c2ncc(Cl)cc2-c2ccc(S(C)(=O)=O)cc2)cn1 [UM0141550:01, Etoricoxib] | – |
| 9.856 | CC(C)n1c(/C=C/[C@H](O)C[C@H](O)CC(=O)O)c(-c2ccc(F)cc2)c2ccccc21 [UM0141552:01, Fluvastatin] | – |
| 5.02 | CC[C@H](C)n1cc(C)c2c(C(=O)NCc3c(C)cc(C)[nH]c3=O)cc(-c3ccc(N4CCNCC4)nc3)cc21 [UM0141557:01, GSK126] | – |
| 8.178 | CCCc1cc(C)[nH]c(=O)c1CNC(=O)c1cc(-c2ccnc(N3CCN(C)CC3)c2)cc2c1cnn2C(C)C [UM0141559:01, GSK343] | – |
| 10.91 | N#Cc1ccc2[nH]cc(CCCCN3CCN(c4ccc5oc(C(N)=O)cc5c4)CC3)c2c1 [UM0141561:04, Vilazodone Hydrochloride] | – |

Further lines, the compound ahead of its results:

| SMILES | Inh (PKA) [1] [%] | further results |
| --- | --- | --- |
| Cc1n[nH]c2ccc(-c3cncc(OC[C@@H](N)Cc4c[nH]c5ccccc45)c3)cc12 [UM0141510:01, A-443654] | 34.74 | – |
| Nc1nc(NC2CC2)c2ncn([C@H]3C=C[C@@H](CO)C3)c2n1 [UM0141511:01, Abacavir] | 2.063 | – |
| CN(C)C/C=C/C(=O)Nc1cc2c(Nc3ccc(F)c(Cl)c3)ncnc2cc1O[C@H]1CCOC1 [UM0141512:01, Afatinib dimaleate] | – | Inh (PKA) [2]: 6.216% |
| CN(C)C/C=C/C(=O)Nc1cc2c(Nc3ccc(F)c(Cl)c3)ncnc2cc1O[C@H]1CCOC1 [UM0141512:02, Afatinib (BIBW2992)] | – | Inh (PKA) [2]: 5.289% |
| Cn1c(=O)cc(N2CCC[C@@H](N)C2)n(Cc2ccccc2C#N)c1=O [UM0141514:01, Alogliptin Benzoate] | – | Inh (PKA) [2]: 3.371% |
| N#Cc1ccc(Oc2ccc3c(c2)COB3O)cc1 [UM0141516:01, AN-2728] | 2.062 | – |
| COc1cc2cc(c1Cl)N(C)C(=O)C[C@H](OC(=O)C(C)C)[C@]1(C)O[C@@H]1[C@H](C)[C@@H]1C[C@@](O)(NC(=O)O1)[C@H](OC)/C=C/C=C(\C)C2 [UM0141517:01, Ansamitocin P-3] | – | Inh (PKA): 6.121% |
| CC[C@@H]1/C=C(\C)C[C@H](C)C[C@H](OC)[C@H]2O[C@@](O)(C(=O)C(=O)N3CCCC[C@H]3C(=O)O[C@H](/C(C)=C/[C@@H]3CC[C@@H](O)[C@H](OC)C3)[C@H](C)[C@@H](O)CC1=O)[C@H](C)C[C@@H]2OC [UM0141519:01, Ascomycin(FK 520)] | – | Inh (PKA): 13.3 |
| C=C[C@@H]1C[C@]1(NC(=O)[C@@H]1C[C@@H](Oc2ncc(OC)c3ccc(Cl)cc23)CN1C(=O)[C@@H](NC(=O)OC(C)(C)C)C(C)(C)C)C(=O)NS(=O)(=O)C1CC1 [UM0141521:01, Asunaprevir (BMS-650032)] | -7.752 | – |
| COc1cc([C@@H]2c3cc4c(cc3[C@H](O)[C@H]3COC(=O)[C@@H]23)OCO4)cc(OC)c1OC [UM0141523:01, AXL1717] | 8.722 | – |
| C[C@@H]1COCCN1c1cc(C2(S(C)(=O)=O)CC2)nc(-c2cccc3[nH]ccc23)n1 [UM0141524:01, AZ20] | 9.96 | – |
| COC(=O)[C@]12CCC(C)(C)C[C@H]1[C@H]1C(=O)C=C3[C@@]4(C)C=C(C#N)C(=O)C(C)(C)[C@@H]4CC[C@@]3(C)[C@]1(C)CC2 [UM0141526:01, Bardoxolone methyl] | 12.18 | – |
| CC(C)(C)NC(=O)N[C@H](C(=O)N1C[C@H]2[C@@H]([C@H]1C(=O)NC(CC1CCC1)C(=O)C(N)=O)C2(C)C)C(C)(C)C (some centres unmarked) [UM0141529:01, Boceprevir] | 1.202 | – |
| Cc1c(NC(=O)c2ccc(C(C)(C)C)cc2)cccc1-c1cn(C)c(=O)c(Nc2ccc(C(=O)N3CCOCC3)cc2)n1 [UM0141530:01, CGI-1746] | 10.06 | – |
| O=C(c1ccc(F)c(F)c1Nc1ccc(I)cc1F)N1CC(O)([C@@H]2CCCCN2)C1 [UM0141533:01, Cobimetinib] | 6.124 | – |
| C=C1C(=O)O[C@@H]2/C=C(\C)CC/C=C(\C)CC[C@@H]12 [UM0141534:01, Costunolide] | 4.671 | – |
| CC(C)(C)NS(=O)(=O)c1cncc(-c2cc(F)c3nc(N)nn3c2)c1 [UM0141537:01, CZC24832] | 2.566 | – |

| SMILES | Inh (PKA) [1] [%] | further results |
| --- | --- | --- |
| S=C(S)O[C@@H]1C[C@@H]2C[C@@H]1[C@H]1CCC[C@@H]21 [UM0141538:01, D609] | 17.68 | – |
| CCCCCCOC(=O)NC(=N)c1ccc(NCc2nc3cc(C(=O)N(CCC(=O)OCC)c4ccccn4)ccc3n2C)cc1 [UM0141539:01, Dabigatran etexilate mesylate] | – | Inh (PKA) [2]: 7.702% |
| CC(C)(C)c1nc(-c2cccc(NS(=O)(=O)c3c(F)cccc3F)c2F)c(-c2ccnc(N)n2)s1 [UM0141540:01, Dabrafenib Mesylate (GSK-2118436)] | – | Inh (PKA) [2]: 39.79% |
| CC(=O)O[C@@]12CO[C@@H]1C[C@H](O)[C@@]1(C)C(=O)[C@H](O)C3=C(C)[C@@H](OC(=O)[C@H](O)[C@@H](NC(=O)OC(C)(C)C)c4ccccc4)C[C@@](O)([C@@H](OC(=O)c4ccccc4)[C@H]21)C3(C)C [UM0141543:01, Docetaxel Trihydrate] | – | Inh (PKA) [2]: 1.786% |
| CN1CCc2nc(C(=O)N[C@@H]3C[C@@H](C(=O)N(C)C)CC[C@@H]3NC(=O)C(=O)Nc3ccc(Cl)cn3)sc2C1 [UM0141545:01, Edoxaban] | – | Inh (PKA) [2]: 0.988% |
| CN1CCc2nc(C(=O)N[C@@H]3C[C@@H](C(=O)N(C)C)CC[C@@H]3NC(=O)C(=O)Nc3ccc(Cl)cn3)sc2C1 [UM0141546:01, Edoxaban tosylate monohydrate] | – | Inh (PKA) [2]: 2.853% |
| Cc1cc([N+](=O)[O-])ccc1NS(=O)(=O)c1cc(Cl)ccc1Cl [UM0141551:01, FH535] | 77.24 | – |
| COc1ccc2c3c1O[C@H]1C[C@@H](O)C=C[C@@]31CCN(C)C2 [UM0141554:01, Galanthamine] | – | Inh (PKA) [2]: 0.2093% |
| CC(C)=CCC[C@]1(C)C=Cc2c(O)c3c(c(CC=C(C)C)c2O1)O[C@]12C(=C[C@@H]4C[C@H]1C(C)(C)O[C@@]2(C/C=C(/C)C(=O)O)C4=O)C3=O [UM0141555:01, Gambogic Acid] | 4.588 | – |
| CS(=O)(=O)N1CCN(Cc2cc3nc(-c4cccc5[nH]ncc45)nc(N4CCOCC4)c3s2)CC1 [UM0141556:01, GDC-0941 dimethanesulfonate] | – | Inh (PKA) [2]: 7.081% |
| Cn1cc(-c2ccc3c(c2)CCN3C(=O)Cc2cccc(C(F)(F)F)c2)c2c(N)ncnc21 [UM0141558:01, GSK2606414] | 15.1 | – |
| N=C(N)NC(=O)Cc1c(Cl)cccc1Cl [UM0141560:01, Guanfacine hydrochloride] | 4.541 | – |
| O=S(=O)(c1cccc2c(O)nccc12)N1CCCNCC1 [UM0141561:01, Hydroxyfasudil hydrochloride] | 27.19 | – |
| O[C@@H](c1cc(C(F)(F)F)nc2c(C(F)(F)F)cccc12)[C@H]1CCCCN1 [UM0141561:02, Mefloquine hydrochloride] | 15.66 | – |
| CCCCS(=O)(=O)N[C@@H](Cc1ccc(OCCCCC2CCNCC2)cc1)C(=O)O [UM0141561:03, Tirofiban hydrochloride monohydrate] | 1.888 | – |
| COC(=O)[C@@H](N)CCCNC(=N)N[N+](=O)[O-] [UM0141561:05, L-NAME hydrochloride] | -1.626 | – |
| COc1cc2c3cc1Oc1c(OC)c(OC)cc4c1[C@@H](Cc1cccc(c1)Oc1ccc(c(O)c1)C[C@@H]3N(C)CC2)N(C)CC4 [UM0141561:06, Berbamine hydrochloride] | – | Inh (PKA): 0.4662% |
